In patent US20250195520A1, “COMBINATION THERAPY USING A PTPN11 INHIBITOR AND AN EGFR INHIBITOR” (NAVIRE PHARMA, INC., priority 2021, published 2025):
“Also recorded” adds a separate entry of the source.

How the values were obtained:
[1] = test system: MPAS-plus signature (MAPK pathway) in HCC827-ER1 tumors; assay: RNA sequencing (QuantSeq), MPAS-plus signature in HCC827-ER1 xenograft tumors; format: in vivo, mouse; conditions: for effect on MPAS-plus signature: across timepoints
Protocol: (§1) In vivo modeling, treatment and data analysis. […] Dosing started ˜3 weeks after the subcutaneous implantation of the tumor cells. Dosing volume was 5 mL/kg for each compound, and was adjusted based on individual mouse weight. Dosing and sample harvesting followed the schedule below. There was a 6-hour interval between the morning dose and the afternoon dose, and tumor/plasma samples were harvested at three timepoints during the 24-hour dosing cycle.

[2] = Body weight in the HCC827-ER1 xenograft study; conditions: Day 15
Protocol: In vivo modeling, treatment and data analysis. […] Dosing started ˜3 weeks post the subcutaneous implantation of the tumor cells. Dosing volume was 5 mL/kg for each compound, and was adjusted based on individual mouse weight from the daily measurements. Tumor volume was measured twice a week.
(§2) Data were analyzed using Microsoft Excel and GraphPad Prism 8.0. Day 0 was the day before treatment started. Body weight change was calculated based on the following formulas.
BWi and BW0 are the body weight of an individual mouse on measurement day I and on day 0, respectively.

[3] = test system: HCC827-ER1 subcutaneous tumors; assay: HCC827-ER1 subcutaneous xenograft, tumor volume; format: in vivo, mouse; conditions: for Number of regressions: regressions/animals remaining
Protocol: (§3) Cell lines. The HCC827 cell line was purchased from ATCC. […] The cells were cultured in RPMI-1640 medium (Sigma #RO883)+10% FBS (Sigma #F7524)+2 mM L-glutamine (Sigma #59202C) in 37° C. tissue culture incubator with 5% CO2.
(§4) Test animals. Female athymic nude mice (Envigo UK, Hsd: Athymic Nude-Foxn1nu) were utilized in this experiment. Animals were between 5 and 6 weeks of age at time of xenograft implantation. Animal welfare complies with the UK Animals Scientific Procedures Act 1986 (ASPA) in line with Directive 2010/63/EU of the European Parliament and the Council of 22 Sep. 2010 on the protection of animals used for scientific purposes. All experimental data management and reporting procedures were in strict accordance with applicable Crown Bioscience UK Guidelines and Standard Operating Procedures.
(§5) In vivo modeling, treatment and data analysis. For xenograft studies with the HCC827 and HCC827-ER1 cells, 5 million cells in 200 μL Matrigel (Corning #354234) were injected subcutaneously into the left flank of 5˜6 weeks old female athymic nude mice (Envigo UK). […] Dosing started ˜3 weeks post the subcutaneous implantation of the tumor cells. Dosing volume was 5 mL/kg for each compound, and was adjusted based on individual mouse weight from the daily measurements. Tumor volume was measured twice a week.
as §2

[4] = Plasma exposure by LC-MS/MS in the HCC827 xenograft study; conditions: for Formula (10b) Plasma concentration: 6-8 hours post the final dose of formula (10b) 100 mg/kg QD, mean ± SD
Excerpt: (§6) Blood collection for pharmacokinetic analysis. Blood from live animals for pharmacokinetic (PK) analyses was obtained via the lateral saphenous vein. The mouse was placed in a restraint tube and the hind leg immobilized in the extended position. Resting the foot of the animal on a solid surface, a sterile 25g needle (BD Microlance 3) was inserted into the saphenous vein on the top of the foot. The needle was removed and the blood collected using an EDTA coated capillary blood tube (Microvette CB 300 K2E) by capillary action to a volume of 100 μL. The tube was inverted several times to distribute the EDTA evenly and then centrifuged at 13,000 rpm, 4° C. (VWR Micro Star 17R) for 5 minutes to generate plasma. The supernatant (plasma) was carefully transferred to a 1.5 mL tube and stored at −80° C.
For each analysis, 25 μL of plasma sample was precipitated with 200 μL of acetonitrile containing imipramine (70 ng/mL) as an internal standard.
(§7) The detection conditions of the mass spectrometer were as follows: capillary voltage, 3 kv; cone voltage, 50 ev; collision energy, 25 ev; source temperature, 150° C.; desolvation temperature, 400° C.; desolvation gas flow, 1000 L/hr; cone gas glow, 0.15 mL/min. […] The injection volume was 5 μL. The LC mobile phase A was 0.1% acetic acidwater and B was 0.1% acetic acid-acetonitrile. […] The column temperature was 40° C. […] All data were processed using the MAssLynx v. 4.0 software.

[5] = test system: DUSP6 mRNA (MAPK pathway signaling) in HCC4006-OsiR cells; assay: In vitro pharmacodynamic assay, Taqman qRT-PCR of DUSP6 in HCC4006-OsiR cells; format: cell-based, human; conditions: osimertinib 100 nM, formula (10b) 3 μM, 4-hour, 48-hour, 7-day treatment
Protocol: In vitro pharmacodynamic assay—Taqman qRT-PCR assay. The HCC4006-OsiR cells were plated in 6-well plates (Corning #353046) in 2 mL media and allowed to adhere overnight. […] Four hours later, 4-hour samples were harvested by removing media and lysing cells in each well with 350 μL RLT lysis buffer (Qiagen #79216) with 1% 2-mercaptoethanol. Samples were processed either right way or stored at −20° C. until further analysis. On day 3 and day 8, 48-hour samples and 7-day samples were harvested in the same way. Cells harvested at these two timepoints were switched to fresh media containing compounds 24 hours before sample harvesting.
RNA was extracted from lysates using RNeasy mini RNA isolation kit (Qiagen #74106). Isolated RNA was quantified using Nanodrop 8000 (Thermo Fisher). cDNA was synthesized using high capacity cDNA reverse transcription kit (Thermo Fisher #4368813) with 1 μg total RNA per reaction on a BioRad Tetrad2 thermal cycler (25° C. for 10 min, 37° C. for 120 min, 85° C. for 5 min then hold at 4° C.). The cDNA was further diluted 1:10 using ddH2O. Quantitative real-time PCR was conducted using the following Taqman probes and Taqman universal master mix II without UNG (Thermo Fisher #4440040) on QuantStudio 6 in 384-well format (Thermo Fisher), following vendor's protocols. Each well contains a target probe of interest conjugated to FAM dye (DUSP6, Thermo Fisher Assay ID Hs01044001_m1), and an endogenous control conjugated to VIC dye (human RPLPO, Thermo Fisher #4326314E). Each cDNA was run in three technical replicates.
The ΔΔCt method was used to analyze the qRT-PCR data. […] To calculate fold change, the relative mRNA levels of each sample were normalized to that in DMSO treated samples (fold change for DMSO treated samples was set at “1”). Calculations were done in Microsoft Excel and the graphs were generated in GraphPad Prism 8.0.

[6] = Plasma concentration by LC-MS/MS in mice bearing HCC827-ER1 tumors (PK/PD study)
Protocol: as §1
as §6, with “μL.” for “μL. The tube was inverted several times to distribute the EDTA evenly and then centrifuged at 13,000 rpm, 4° C. (VWR Micro Star 17R) for 5 minutes to generate plasma. The supernatant (plasma) was carefully transferred to a 1.5 mL tube and stored at −80° C.”
The tube was inverted several times to distribute the EDTA evenly and then centrifuged at 13,000 rpm, 4° C. (VWR Micro Star 17R) for 5 minutes to generate plasma. The supernatant (plasma) was carefully transferred to a 1.5 mL tube and stored at −80° C.
as §7

[7] = test system: HCC827 subcutaneous tumors; assay: HCC827 subcutaneous xenograft, tumor volume; format: in vivo, mouse
Protocol: as §3, §4, §5, §2

[8] = HCC827 xenograft, formula (10b) 100 mg/kg QD, osimertinib 5 mg/kg QD, PO, 21 days

With `Cc1c(N2CCC3(CC2)CO[C@@H](C)[C@H]3N)nc(C)n(-c2cccc(Cl)c2Cl)c1=O` (atropisomer, axis not shown; (Ra)) [Formula (10b), 6-((3S,4S)-4-amino-3-methyl-2-oxa-8-azaspiro[4.5]decan-8-yl)-3-(Ra)-(2,3-dichlorophenyl)-2,5-dimethylpyrimidin-4 (3H)-one] the “mRNA levels of the MPAS-plus genes” value ([1]; 6-hour and 8-hour after formula (10b) administration) was “potently suppressed the mRNA levels of the MPAS-plus genes”, the “effect on MPAS-plus signature” value [1] was “suppresses the MPAS-plus signature” and the “Mean body weight change” value [2] was “+6.3%”. For the same compound, the TGI ([3]; Day 15, HCC827-ER1 xenograft, formula (10b) 100 mg/kg QD, osimertinib 5 mg/kg QD) was 84%, the Number of regressions ([3]; Day 15, HCC827-ER1 xenograft) was 0/4 and the “tumor growth (tumor volume)” value ([3]; HCC827-ER1 xenograft, formula (10b) 100 mg/kg QD, osimertinib 5 mg/kg QD, PO, 21 days) was “suppresses the growth of the HCC827-ER1 tumors; also recorded: tumor stasis”. For the same compound, the “Formula (10b) Plasma concentration” value ([4]; HCC827 xenograft model) was 14.1 ± 5.6 µM, the “Formula (10b) Plasma concentration” value ([4]; HCC827 xenograft model, listed as formula (10b)) was 14.1 µM and the “DUSP6 mRNA levels” value [5] was “reduces the transcript levels of MAPK pathway signature gene DUSP6; also recorded: potently suppressed DUSP6 mRNA levels at all three timepoints tested”. The Formula (10b) Plasma concentration ([6]; 6 hours and 8 hours after dosing, 100 mg/kg, monotherapy and in combination with osimertinib) was 30 to 50 µM, the “10(b) plasma concentration” value ([6]; 24 hr post (10b) (18 hr post osimertinib), formula (10b) 100 mg/kg PO, mean ± SD) was 1.34 ± 0.24 µM and the concentration at 6 h ([6]; female, athymic nude, mouse, plasma, oral, 100 mg/kg, 10(b) plasma concentration, 6 hr post (10b) (24 hr post osimertinib), formula (10b) 100 mg/kg PO, mean ± SD) was 47400 ± 5200 nM. For the same compound, the concentration at 8 h ([6]; female, athymic nude, mouse, plasma, oral, 100 mg/kg, 10(b) plasma concentration, 8 hr post (10b) (2 hr post osimertinib), formula (10b) 100 mg/kg PO, mean ± SD) was 35800 ± 9100 nM, the concentration at 24 h ([6]; female, athymic nude, mouse, plasma, oral, 100 mg/kg, 10(b) plasma concentration, 24 hr post (10b) (18 hr post osimertinib), formula (10b) 100 mg/kg PO, mean ± SD) was about 1000 nM and the “tumor growth (tumor volume)” value [7, 8] was “suppresses the growth of the HCC827 subcutaneous tumors; also recorded: tumor stasis”.

For `C=CC(=O)Nc1cc(Nc2nccc(-c3cn(C)c4ccccc34)n2)c(OC)cc1N(C)CCN(C)C` [Osimertinib], the “effect on MPAS-plus signature” value [1] was “little effect on the MPAS-plus signature”, the “Mean body weight change” value [2] was “+1.0%” and the Number of regressions ([3]; Day 15, HCC827-ER1 xenograft) was 0/4. For the same compound, the TGI ([3]; mouse, in vivo) was 64%, the “tumor growth (tumor volume)” value ([3]; mouse, in vivo) was “continued to grow during the treatment period” and the “osimertinib plasma concentration” value ([4]; 24 hours post the final dose of osimertinib 5 mg/kg QD, HCC827 xenograft model, quantitation limit 2 nM) was “BQL”. For the same compound, the concentration at 24 h ([4]; athymic nude, mouse, in vivo, 5 mg/kg) was under 2 nM, the “DUSP6 mRNA levels” value [5] was “did not suppress DUSP6 mRNA levels” and the osimertinib plasma concentration ([6]; 2 hr post osimertinib (8 hr post (10b)), osimertinib 5 mg/kg PO, mean ± SD) was 681 ± 277 nM. For the same compound, the osimertinib plasma concentration ([6]; 18 hr post osimertinib (24 hr post (10b)), osimertinib 5 mg/kg PO, mean ± SD) was “low nanomolar range”, the osimertinib plasma concentration ([6]; 24 hr post osimertinib (6 hr post (10b)), osimertinib 5 mg/kg PO, quantitation limit 2 nM) was “BQL” and the concentration at 2 h ([6]; female, athymic nude, mouse, in vivo, 5 mg/kg, osimertinib plasma concentration, 2 hr post osimertinib (8 hr post (10b)), osimertinib 5 mg/kg PO, mean ± SD) was about 700 nM. The concentration at 18 h ([6]; female, athymic nude, mouse, in vivo, 5 mg/kg, osimertinib plasma concentration, 18 hr post osimertinib (24 hr post (10b)), osimertinib 5 mg/kg PO, mean ± SD) was 2.1 ± 0.14 nM, the concentration at 24 h ([6]; female, athymic nude, mouse, in vivo, 5 mg/kg, osimertinib plasma concentration, 24 hr post osimertinib (6 hr post (10b)), osimertinib 5 mg/kg PO, quantitation limit 2 nM) was under 2 nM and the “tumor growth (tumor volume)” value [7, 8] was “tumor stasis”. The “tumor growth (tumor volume)” value ([7]; mouse, in vivo) was “robust tumor regression”.
